From publication PMC9643456, “Matching amino acids membrane preference profile to improve activity of antimicrobial peptides” (Communications Biology, 2022)
Converted amounts (≈) assume the structure as drawn. Read-outs that look alike come from different tables or passages of the source. Square brackets hold non-standard residues; d marks the D form. Ends that are not written are not given here. Peptide text beside a SMILES is read from it. Trp(5-OH) = N[C@@H](Cc1c[nH]c2ccc(O)cc12)C(=O)O

Legend:
MDR A. baumannii = assay: microbe, parasite or virus in culture; conditions: for Minimum inhibitory concentrations, MDR A. baumannii: CLSI broth microdilution, CAMHB with 50 mg/L Ca2+, 10 mg/L Mg2+, 5 × 10^5 CFU/ml, 18 h 37 °C, triplicate, strain ATCC BAA-1605
Text: (§1) MDR Pseudomonas aeruginosa (CCARM 2180) was purchased from the Culture Collection of Antimicrobial Resistance Microbes (Seoul, Republic of Korea). MDR Acinetobacter baumannii (ATCC BAA-1605) and MDR Enterococcus faecalis (ATCC 51575) were purchased from the American Type Culture Collection (Manassas, VA, USA). MDR Staphylococcus aureus (KCCM 40510) was purchased from the Korean Culture Center of Microorganisms (Seoul, Republic of Korea). S. aureus (KCTC 1621) was purchased from the Korean Collection for Type Cultures. A. baumannii (KCCM 40203) was purchased from the Korean Culture Center of Microorganisms (Seoul, Republic of Korea).
(§2) To assess antimicrobial activity, the MIC50 and MIC90 were measured using broth microdilution following CLSI guidelines. […] Each experiment was performed in triplicate. Meropenem (Sigma, Darmstadt, Germany) and colistin were used as control antibiotics. Cation-adjusted Mueller–Hinton broth (CAMHB) (Becton, Dickinson and Company, Franklin Lakes, USA) with supplied calcium (50 mg/L) and magnesium (10 mg/L) was used for the CLSI-test condition. Bacteria in midlog phase and peptides were separately diluted in CAMHB. The bacteria and peptide solutions were then mixed in 96-well polyethylene plates (SPL, Gyeonggi-do, Korea) and incubated for 18 h at 37 °C. The final concentration for bacteria was 5 × 10^5 CFU/ml. […] The MIC was defined to be the lowest concentration of peptide without visible turbidity by comparing with control antibiotics with the unaided eye. […] Each experiment was performed in triplicate. MICs in albumin and acetic acid solutions were measured using the same protocol but with 0.2% bovine serum albumin (Bovogen, Keilor, Australia), 0.01% acetic acid (Merck, New Jersey, USA), and CAMHB with both calcium and magnesium. In addition, MICs used in the antibiotic resistance acquisition test, the outer–inner membrane permeation test, and the transmembrane potential test and for FE-SEM were individually determined. The final bacterial concentrations used were as follows: for resistance acquisition, optical density (OD) 0.01; for outer–inner membrane permeability assays (LB), OD 0.1; for the transmembrane potential test, 1 × 10^8 CFU/ml (OD 0.171); […]. Inhibitory activity unidentifiable by direct observation was determined by counting the CFUs. Each experiment was performed at least twice.

MDR E. faecalis = assay: microbe, parasite or virus in culture; conditions: for Minimum inhibitory concentrations, MDR E. faecalis: CLSI broth microdilution, CAMHB with 50 mg/L Ca2+, 10 mg/L Mg2+, 5 × 10^5 CFU/ml, 18 h 37 °C, triplicate, strain ATCC 51575
Text: as §1, §2

MDR P. aeruginosa = assay: microbe, parasite or virus in culture; conditions: for Minimum inhibitory concentrations, MDR P. aeruginosa: CLSI broth microdilution, CAMHB with 50 mg/L Ca2+, 10 mg/L Mg2+, 5 × 10^5 CFU/ml, 18 h 37 °C, no visible turbidity, triplicate, strain CCARM 2180
Text: as §1, §2

MDR S. aureus = assay: microbe, parasite or virus in culture; conditions: for Minimum inhibitory concentrations, MDR S. aureus: CLSI broth microdilution, CAMHB with 50 mg/L Ca2+, 10 mg/L Mg2+, 5 × 10^5 CFU/ml, 18 h 37 °C, triplicate, strain KCCM 40510
Text: as §1, §2

human red blood cells = assay: Hemolytic activity; format: cell-based
Outline: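 Peptides (100 μM down to 0.78 μM) were incubated with 4% final human erythrocytes in PBS for 18 h at 37 °C. Supernatant absorbance at 540 nm after centrifugation was scaled to 1% Triton X-100 (100%) and no peptide (0%); melittin served as positive control; triplicate runs.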

[1] = CAMHB plus 0.2% bovine serum albumin and 0.01% acetic acid, values marked * in Table 2

NH2 wM l l w i g l r k k r CONH2 [WCopW15, WCopW analog]
Minimum inhibitory concentrations, MDR A. baumannii (MDR A. baumannii): 1.25 µM | Minimum inhibitory concentrations, MDR E. faecalis (MDR E. faecalis): 2.5 µM | Minimum inhibitory concentrations, MDR P. aeruginosa (MDR P. aeruginosa): 10 µM | Minimum inhibitory concentrations, MDR S. aureus (MDR S. aureus): 1.25 µM | Hemolysis percent, 25 μM (human red blood cells): 0.65% | Hemolysis percent, 50 μM (human red blood cells): 1.16% | Hemolysis percent, 100 μM (human red blood cells): 4.04%

CC[C@@H](C)[C@@H](NC(=O)[C@@H](Cc1c[nH]c2ccccc12)NC(=O)[C@@H](CC(C)C)NC(=O)[C@H](N)CC(C)C)C(=O)NCC(=O)N[C@H](CC(C)C)C(=O)N[C@H](CCCCN)C(=O)N[C@H](CCCCN)C(=O)N[C@H](CCCCN)C(=O)N[C@H](CCCCN)C(N)=O [WCopW14] (H-[dL][dL][dW][dI]G[dL][dK][dK][dK][dK]-NH2)
Minimum inhibitory concentrations, MDR A. baumannii (MDR A. baumannii): > 20 µM | Minimum inhibitory concentrations, MDR E. faecalis (MDR E. faecalis): > 20 µM | Minimum inhibitory concentrations, MDR P. aeruginosa (MDR P. aeruginosa): > 20 µM | Minimum inhibitory concentrations, MDR S. aureus (MDR S. aureus): > 20 µM | Hemolysis percent, 25 μM (human red blood cells; red cells of human, 18 h, 25): 0.98% | Hemolysis percent, 50 μM (human red blood cells; red cells of human, 18 h, 50): 1.06% | Hemolysis percent, 100 μM (human red blood cells; red cells of human, 18 h, 100): 1.10%

WLLLLLRRR-NH2 [AcWL-1]
MIC in 0.2% albumin and 0.01% AcOH added CLSI standard condition, MDR A. baumannii (MDR A. baumannii; [1]): 1.25 µM | Minimum inhibitory concentrations, MDR A. baumannii (MDR A. baumannii): 2.5 µM | MIC in 0.2% albumin and 0.01% AcOH added CLSI standard condition, MDR E. faecalis (MDR E. faecalis; [1]): 5 µM | Minimum inhibitory concentrations, MDR E. faecalis (MDR E. faecalis): 10 µM | MIC in 0.2% albumin and 0.01% AcOH added CLSI standard condition, MDR P. aeruginosa (MDR P. aeruginosa; [1]): > 20 µM | Minimum inhibitory concentrations, MDR P. aeruginosa (MDR P. aeruginosa): > 20 µM | MIC in 0.2% albumin and 0.01% AcOH added CLSI standard condition, MDR S. aureus (MDR S. aureus; [1]): 5 µM | Minimum inhibitory concentrations, MDR S. aureus (MDR S. aureus): 10 µM | Hemolysis percent, 50 μM (human red blood cells; red cells of human, 18 h, 50 μM): 20.52 ±1.25% | Hemolysis percent, 25 μM (human red blood cells; red cells of human, 18 h, 25): 11.89 ±1.24% | Hemolysis percent, 100 μM (human red blood cells; red cells of human, 18 h, 100): 36.35 ±3.00%

CC[C@@H](C)[C@@H](NC(=O)[C@@H](Cc1c[nH]c2ccccc12)NC(=O)[C@@H](CC(C)C)NC(=O)[C@@H](CC(C)C)NC(=O)[C@H](N)Cc1c[nH]c2ccccc12)C(=O)NCC(=O)N[C@H](CC(C)C)C(=O)N[C@H](CCCNC(=N)N)C(=O)N[C@H](CCCCN)C(=O)N[C@H](CCCCN)C(=O)N[C@H](CCCNC(=N)N)C(N)=O [WCopW5] (H-[dW][dL][dL][dW][dI]G[dL][dR][dK][dK][dR]-NH2)
Minimum inhibitory concentrations, MDR A. baumannii (MDR A. baumannii): 1.25 µM (≈ 1.83 µg/mL) | actual MIC as weight/volume concentration (MDR A. baumannii; molar MIC converted with the molecular weight (melittin 2.85 kDa, WCopW5 1.47 kDa)): 1.84 µg/mL | Minimum inhibitory concentrations, MDR E. faecalis (MDR E. faecalis): 2.5 µM (≈ 3.67 µg/mL) | Minimum inhibitory concentrations, MDR P. aeruginosa (MDR P. aeruginosa): 10 µM (≈ 14.7 µg/mL) | Minimum inhibitory concentrations, MDR S. aureus (MDR S. aureus): 1.25 µM (≈ 1.83 µg/mL) | Hemolysis percent, 25 μM (human red blood cells; red cells of human, 18 h, 25): 2.99% | Hemolysis percent, 50 μM (human red blood cells; red cells of human, 18 h, 50): 7.77% | Hemolysis percent, 100 μM (human red blood cells; red cells of human, 18 h, 100): 11.60%

CC[C@@H](C)[C@@H](NC(=O)[C@@H](Cc1c[nH]c2ccccc12)NC(=O)[C@@H](CC(C)C)NC(=O)[C@@H](CC(C)C)NC(=O)[C@@H](Cc1c[nH]c2ccccc12)NC(=O)[C@@H](N)CO)C(=O)NCC(=O)N[C@H](CC(C)C)C(=O)N[C@H](CCCNC(=N)N)C(=O)N[C@H](CCCCN)C(=O)N[C@H](CCCCN)C(=O)N[C@H](CCCNC(=N)N)C(N)=O [WCopW19] (H-S[dW][dL][dL][dW][dI]G[dL][dR][dK][dK][dR]-NH2)
Minimum inhibitory concentrations, MDR A. baumannii (MDR A. baumannii): 2.5 µM (≈ 3.89 µg/mL) | Minimum inhibitory concentrations, MDR E. faecalis (MDR E. faecalis): 2.5 µM (≈ 3.89 µg/mL) | Minimum inhibitory concentrations, MDR P. aeruginosa (MDR P. aeruginosa): 10 µM (≈ 15.5 µg/mL) | Minimum inhibitory concentrations, MDR S. aureus (MDR S. aureus): 2.5 µM (≈ 3.89 µg/mL) | Hemolysis percent, 25 μM (human red blood cells; red cells of human, 18 h, 25): 4.32% | Hemolysis percent, 50 μM (human red blood cells; red cells of human, 18 h, 50): 7.26% | Hemolysis percent, 100 μM (human red blood cells; red cells of human, 18 h, 100): 10.57%

CC[C@@H](C)[C@@H](NC(=O)[C@@H](Cc1c[nH]c2ccccc12)NC(=O)[C@@H](CC(C)C)NC(=O)[C@@H](CC(C)C)NC(=O)[C@H](N)Cc1c[nH]c2ccccc12)C(=O)NCC(=O)N[C@H](CC(C)C)C(=O)N[C@H](CCCNC(=N)N)C(=O)N[C@H](CCCCN)C(=O)N[C@H](CCCCN)C(N)=O [WCopW8] (H-[dW][dL][dL][dW][dI]G[dL][dR][dK][dK]-NH2)
Minimum inhibitory concentrations, MDR A. baumannii (MDR A. baumannii): 5 µM (≈ 6.56 µg/mL) | Minimum inhibitory concentrations, MDR E. faecalis (MDR E. faecalis): 5 µM (≈ 6.56 µg/mL) | Minimum inhibitory concentrations, MDR P. aeruginosa (MDR P. aeruginosa): > 20 µM | Minimum inhibitory concentrations, MDR S. aureus (MDR S. aureus): 2.5 µM (≈ 3.28 µg/mL) | Hemolysis percent, 25 μM (human red blood cells; red cells of human, 18 h, 25): 3.85% | Hemolysis percent, 50 μM (human red blood cells; red cells of human, 18 h, 50): 8.51% | Hemolysis percent, 100 μM (human red blood cells; red cells of human, 18 h, 100): 15.04%

SLLWIALRKK-NH2 [SCopW]
Minimum inhibitory concentrations, MDR A. baumannii (MDR A. baumannii): >20 µM | Minimum inhibitory concentrations, MDR E. faecalis (MDR E. faecalis): >20 µM | Minimum inhibitory concentrations, MDR P. aeruginosa (MDR P. aeruginosa): >20 µM | Minimum inhibitory concentrations, MDR S. aureus (MDR S. aureus): >20 µM

CC[C@H](C)[C@H](NC(=O)[C@H](Cc1c[nH]c2ccc(O)cc12)NC(=O)[C@H](CC(C)C)NC(=O)[C@H](CC(C)C)NC(=O)[C@@H](N)Cc1c[nH]c2ccc(O)cc12)C(=O)N[C@@H](C)C(=O)N[C@@H](CC(C)C)C(=O)N[C@@H](CCCNC(=N)N)C(=O)N[C@@H](CCCCN)C(=O)N[C@@H](CCCCN)C(N)=O [WhCopW] (H-[Trp(5-OH)]LL[Trp(5-OH)]IALRKK-NH2)
Minimum inhibitory concentrations, MDR A. baumannii (MDR A. baumannii): > 20 µM | Minimum inhibitory concentrations, MDR E. faecalis (MDR E. faecalis): > 20 µM | Minimum inhibitory concentrations, MDR P. aeruginosa (MDR P. aeruginosa): > 20 µM | Minimum inhibitory concentrations, MDR S. aureus (MDR S. aureus): 5 µM (≈ 6.79 µg/mL)

CC[C@@H](C)[C@@H](NC(=O)[C@@H](Cc1c[nH]c2ccccc12)NC(=O)[C@@H](CCCCN)NC(=O)[C@@H](CC(C)C)NC(=O)[C@H](N)Cc1c[nH]c2ccccc12)C(=O)NCC(=O)N[C@H](CC(C)C)C(=O)N[C@H](CCCNC(=N)N)C(=O)N[C@H](CCCCN)C(=O)N[C@H](CCCCN)C(=O)N[C@H](CCCNC(=N)N)C(N)=O [WCopWK] (H-[dW][dL][dK][dW][dI]G[dL][dR][dK][dK][dR]-NH2)
Minimum inhibitory concentrations, MDR A. baumannii (MDR A. baumannii): >20 µM | Minimum inhibitory concentrations, MDR E. faecalis (MDR E. faecalis): >20 µM | Minimum inhibitory concentrations, MDR P. aeruginosa (MDR P. aeruginosa): >20 µM | Minimum inhibitory concentrations, MDR S. aureus (MDR S. aureus): >20 µM

CC[C@@H](C)[C@@H](NC(=O)[C@@H](Cc1c[nH]c2ccccc12)NC(=O)[C@H](NC(=O)[C@@H](CC(C)C)NC(=O)[C@H](N)Cc1c[nH]c2ccccc12)C(C)C)C(=O)NCC(=O)N[C@H](CC(C)C)C(=O)N[C@H](CCCNC(=N)N)C(=O)N[C@H](CCCCN)C(=O)N[C@H](CCCCN)C(=O)N[C@H](CCCNC(=N)N)C(N)=O [WCopWV] (H-[dW][dL][dV][dW][dI]G[dL][dR][dK][dK][dR]-NH2)
Minimum inhibitory concentrations, MDR A. baumannii (MDR A. baumannii): 1.25 µM (≈ 1.82 µg/mL) | Minimum inhibitory concentrations, MDR E. faecalis (MDR E. faecalis): 2.5 µM (≈ 3.63 µg/mL) | Minimum inhibitory concentrations, MDR P. aeruginosa (MDR P. aeruginosa): 10 µM (≈ 14.5 µg/mL) | Minimum inhibitory concentrations, MDR S. aureus (MDR S. aureus): 2.5 µM (≈ 3.63 µg/mL)
